{"source": "paper PMC12598616", "about": "“Design and optimization of caspase-1-responsive fluorescent probes for pyroptosis imaging and anti-pyroptosis drug screening” (Chemical Science, 2025)", "test_system": "Cas-1 in NP cell spheroids", "assay": "Imaging in nucleus pulposus 3D cell spheroids", "type": "cell-based, rat", "conditions": "H2O2 2 mM 30, 60, 90 min; FPy1 5 μM; compared with 2D cells", "excerpt": "With advancing age, the prevalence of degenerative bone and joint disorders (DBJDs), such as intervertebral disc degeneration (IVDD) and osteoarthritis (OA), increases markedly among middle-aged and elderly individuals.[30] Chronic inflammation has been identified as the underlying cause of DBJDs. In particular, inflammasome-mediated pyroptosis has been recognized as a primary contributor to sustained inflammatory responses.[31] Consequently, pyroptosis-associated biomarkers represent promising indicators for the diagnosis and monitoring of DBJDs. IVDD, a chronic degenerative condition closely related to natural aging, has become one of the leading causes of disability worldwide.[32] […] The imaging results indicated a positive correlation between fluorescence intensity and H2O2-stimulation time (Fig. 4b). […] Encouraged by the promising imaging results of FPy1 in NP cells and cell spheroids, we further assessed its capability for imaging pytoptosis in vivo. […] Following intradiscal injection of FPy1, the fluorescence images of the tail modeling site were obtained from the dorsal aspect. […] Histological scoring result corroborated these findings, reflecting the same trends as with fluorescence imaging observed using FPy1 (Fig. S13b). […]\nThe cytotoxicity of FPy1 and YPy1 to THP-1 was evaluated by cell counting kit-8 (CCK-8). […]", "data": [{"substance": "–FLTDG– [FPy1, RhoB donor, hNR quencher]", "values": [{"measurement": "fluorescence enhancement in NP spheroids", "result": "the fluorescence enhancement in the spheroids was more pronounced"}]}]}
